Test [1] concerns Green peach aphids (Myzus Persicae Sulzer). As to the kind of experiment: Activity against green peach aphid (airbrush foliar spray). Type of test: in vivo. The following applies: death rate after 48 h; for pest or weed control at 10 µg/mL / pest or weed control at 100 µg/mL / pest or weed control at 600 µg/mL: Myzus persicae, foliar, 48 h; for pest or weed control at 10 µg/mL: 10 mg/L, read-out: Insecticidal activity against peach aphid; for pest or weed control at 100 µg/mL: 100 mg/L; for pest or weed control at 100 µg/mL / pest or weed control at 600 µg/mL: read-out: Insecticidal activity against peach aphid (control). How it is done:
(§1) Compounds were dissolved in mixed solvent (acetone:methanol=1:1), and diluted to required concentration with water containing 0.1% of tween 80.
(§2) Diamond back moth, armyworm, Green Peach Aphid and carmine spider mite were used as targets and the method of spraying by airbrush was used for determination of insecticidal biassays.
Method: Filter papers were put in culture dishes (Diameter=6 cm), and water was dripped on filter papers for preserving moisture. Green peach aphids (Myzus Persicae Sulzer) were maintained on cabbage. Leaves (Diameter=3 cm) of approximately 15-30 aphids were put in the culture dishes. Bioactivity tests were used the method of Airbrush Foliar Spray, pressure=10 psi (0.7 kg/cm2), spray volume=0.5 mL. The studies were conducted at three constant temperatures 25±1 C. in incubator cabinets with 60±5% RH. Survey the survival aphids after 48 h and calculate the death rates.

The subject of another test is wheat powdery mildew. Put plainly: Protectant activity in vivo (whole plant), wheat powdery mildew. The following applies: for pest or weed control at 25 µg/mL: 25 mg/L; for pest or weed control at 100 µg/mL: 100 mg/L. How it is done:
(§3) The method is as followed: The whole plant is used in this test. The compound is dissolved in a proper solvent to get mother solution. The proper solvent is selected from acetone, methanol, DMF and so on according to their dissolving capability to the sample. […] The testing solution is sprayed to the host plant by a special plant sprayer. The plant is inoculated with fungus after 24 hours. According to the infecting characteristic of fungus, the plant is stored in a humidity chamber and then transferred into greenhouse after infection is finished. And the other plants are placed in greenhouse directly. The activity of compound is obtained by eyeballing after 7 days in common.

Another test has as its system armyworm. Put plainly: Insecticidal activity against armyworm (airbrush spray). The test is classed as in vivo. The conditions noted are these: second instar larvae, mortality after 72 h; for pest or weed control at 600 µg/mL: 600 mg/L. How it is done: as §1, §2
The method of spraying by airbrush: The corn leaves were made into plates of 2 cm diameter by use of punch. A test solution (0.5 ml) was sprayed by airbrush at the pressure of 0.7 kg/cm^2 to both sides of every plate. 10 Second instar larvae were put into the petri-dishes after the leaf disc air-dried and 3 replicates were set for each treatment. Then the insects were maintained in observation room (25° C., 60˜70% R.H.). Scores were conducted and mortalities were calculated after 72 h.

The next test deals with rice blast. Put plainly: microbe, parasite or virus in culture. Type of test: cell-based. The following applies: for inhibition at 25 µg/mL: Pyricularia oryzae, 24 h, read-out: inhibition rate against rice blast; for inhibition rate against rice blast: in vitro, 24 hours.
In the next test the test system is cucumber downy mildew. Put plainly: Protectant activity in vivo (whole plant), cucumber downy mildew. The following applies: for pest or weed control at 25 µg/mL / pest or weed control at 50 µg/mL / pest or weed control at 100 µg/mL / pest or weed control at 400 µg/mL: Cucumis sativus, 168 h, read-out: protectant activity against cucumber downy mildew. How it is done: as §3

In a further test the test system is corn rust. As to the kind of experiment: Protectant activity in vivo (whole plant), corn rust. The following applies: Zea mays, 168 h, read-out: protectant activity against corn rust; for pest or weed control at 25 µg/mL: 25 mg/L; for pest or weed control at 100 µg/mL: 100 mg/L; for pest or weed control at 400 µg/mL: 400 mg/L; for pest or weed control at 6.25 µg/mL: 6.25 mg/L. The method, then:
as §3

Another test deals with carmine spider mite. As to the kind of experiment: Acaricidal activity against carmine spider mite (airbrush spray). The test is classed as in vivo. The conditions noted are these: Tetranychus cinnabarinus; 100 mg/L, adults, mortality after 72 hrs. The method, then:
as §1, §2
Method: Broadbean shoots with two true leaves in pot were taken, the healthy adults of carmine spider mite were inoculated to the leaves. The adults were counted and then sprayed with airbrush at the pressure of 0.7 kg/cm^2 and at dose of 0.5 ml. 3 replicates were set for each treatment. And then they were maintained in standard observation room. Scores were conducted and mortalities were calculated after 72 hrs.

For the next test, the system named is diamond back moth. Put plainly: Insecticidal activity against diamond back moth (airbrush spray). The test is classed as in vivo. The following applies: mortality after 72 h, read-out: control of the second instar larvae of diamond back moth; for pest or weed control at 100 µg/mL: 100 mg/L; for pest or weed control at 600 µg/mL: 600 mg/L. How it is done: as §1, §2
The method of spraying by airbrush: The cabbage leaves were made into plates of 2 cm diameter by use of punch. A test solution (0.5 ml) was sprayed by airbrush at the pressure of 0.7 kg/cm^2 to both sides of every plate. 10 Second instar larvae were put into the petri-dishes after the leaf disc air-dried and 3 replicates were set for each treatment. Then the insects were maintained in observation room (25° C., 60˜70% R.H.). Scores were conducted and mortalities were calculated after 72 h.

[2] abbreviates: Triticum aestivum, 168 h, 400 mg/L, read-out: protectant activity against wheat powdery mildew.
The mark [3] stands for this setting: Triticum aestivum, 168 h, read-out: protectant activity against wheat powdery mildew.

SMILES strings stand for the structures.

What is called inhibition is the change of the read-out against control, counted positive when it falls. Regarding `CCc1ncnc(NCc2ccc3c(c2)OCO3)c1Cl` [CK1], in test [1], the pest or weed control at 10 µg/mL was 0%. For the same molecule, the pest or weed control at 100 µg/mL in test [1] turned out to be 30%; with cucumber downy mildew (100 mg/L), 30%; with corn rust, 20%; in the test with carmine spider mite it was 39%. Further, the pest or weed control at 600 µg/mL in test [1] (600 mg/L) came to 70%; in the test on armyworm it was 0%. Also, the pest or weed control at 400 µg/mL in the test with wheat powdery mildew (setting [2]) is 0%; with cucumber downy mildew (400 mg/L), 100%; in the test with corn rust it was 70%. For the same molecule, the inhibition at 25 µg/mL with rice blast was 0%. In addition, the pest or weed control at 25 µg/mL with cucumber downy mildew (25 mg/L) and in the test with corn rust was 0% in each case. Besides, in the test on cucumber downy mildew (50 mg/L), the pest or weed control at 50 µg/mL is 20%.
Turning to `Cc1ncnc(NCc2ccc3c(c2)OCO3)c1Cl` [CK2], the pest or weed control at 10 µg/mL in test [1] was 0%. The pest or weed control at 100 µg/mL in test [1] is 12%; in the test on wheat powdery mildew (setting [3]), 60%; in the test on diamond back moth, 5%; in the test with armyworm (100 mg/L) it was 0%; in the test on cucumber downy mildew (100 mg/L), 60%; in the test on corn rust, 0%. The molecule further came in with a pest or weed control at 100 µg/mL in the test on carmine spider mite of 0%. Further, the pest or weed control at 600 µg/mL in test [1] (600 mg/L) worked out at 20%; in the test with diamond back moth, 20%; in the test with armyworm it was 14%. Besides, the pest or weed control at 6.25 µg/mL in the test with wheat powdery mildew (Triticum aestivum, 168 h, 6.25 mg/L, read-out: protectant activity against wheat powdery mildew) turned out to be 0%. The pest or weed control at 25 µg/mL was 40% in the test with wheat powdery mildew (setting [3]) and 0% in the test with cucumber downy mildew (25 mg/L). The pest or weed control at 400 µg/mL with wheat powdery mildew (setting [2]) was 60%; in the test with cucumber downy mildew (400 mg/L) it was 100%; in the test with corn rust, 75%. Besides, the inhibition at 25 µg/mL with rice blast turned out to be 0%. Moreover, the pest or weed control at 50 µg/mL in the test with cucumber downy mildew (50 mg/L) came out at 40%.
Take `COc1ccc(CCNc2ncnc(C(F)F)c2Cl)cc1OC` [CK5]: the pest or weed control at 10 µg/mL in test [1] was 8%. In addition, the pest or weed control at 100 µg/mL amounted to 35% in test [1], 20% in the test on wheat powdery mildew (setting [3]), 20% in the test on diamond back moth and 0% in the test on carmine spider mite. In addition, the pest or weed control at 600 µg/mL turned out to be 100% in test [1] (600 mg/L), 40% in the test with diamond back moth and 0% in the test with armyworm. In the test with wheat powdery mildew (setting [3]), the pest or weed control at 25 µg/mL was 0%. The pest or weed control at 400 µg/mL in the test with wheat powdery mildew (setting [2]) turned out to be 100%. Besides, the inhibition at 25 µg/mL with rice blast stood at 0%.
With `COc1ccc(CNc2ncnc(C(F)F)c2Cl)cc1OC` [CK6], the pest or weed control at 600 µg/mL (in test [1] (600 mg/L); in the test with armyworm) was 0% throughout. In addition, the pest or weed control at 25 µg/mL in the test with wheat powdery mildew (setting [3]) is 0%. For the same molecule, the pest or weed control at 100 µg/mL in the test on wheat powdery mildew (setting [3]) worked out at 25%; in the test with diamond back moth, 0%; in the test with cucumber downy mildew (100 mg/L) it was 0%; with carmine spider mite, 0%. The pest or weed control at 400 µg/mL with wheat powdery mildew (setting [2]) came out at 85%; with cucumber downy mildew (400 mg/L) it was 80%. In the test with rice blast, the inhibition at 25 µg/mL was found to be 0%.
As to `FC(F)c1ncnc(NCc2ccc3c(c2)OCO3)c1Cl` [CK9], the pest or weed control at 25 µg/mL in the test on wheat powdery mildew (setting [3]) and in the test on corn rust was 0% each time. The pest or weed control at 100 µg/mL with wheat powdery mildew (setting [3]) stood at 10%; with cucumber downy mildew (100 mg/L), 0%; in the test with corn rust it was 25%; in the test with carmine spider mite, 0%. Also, the pest or weed control at 400 µg/mL was 70% in the test on wheat powdery mildew (setting [2]), 50% in the test with cucumber downy mildew (400 mg/L) and 80% in the test on corn rust. Besides, the pest or weed control at 600 µg/mL in the test on diamond back moth and in the test on armyworm was 0% in each case. Moreover, the inhibition at 25 µg/mL with rice blast worked out at 0%. In the test on corn rust, the pest or weed control at 6.25 µg/mL turned out to be 0%.
Consider `ClCc1ncnc(NCc2ccc3c(c2)OCO3)c1Cl` [CK12], for which the pest or weed control at 10 µg/mL in test [1] was determined as 0%. The pest or weed control at 100 µg/mL (in test [1]; in the test on cucumber downy mildew (100 mg/L); in the test with corn rust; in the test with carmine spider mite) was 0% throughout. The pest or weed control at 600 µg/mL in test [1] (600 mg/L) came out at 10%; in the test on diamond back moth it was 0%; in the test with armyworm, 0%. Besides, the pest or weed control at 400 µg/mL in the test with wheat powdery mildew (setting [2]) amounted to 0%; with cucumber downy mildew (400 mg/L), 50%; in the test with corn rust, 40%.
For `Clc1ncnc(NCCc2ccc3c(c2)OCO3)c1Cl` [Compound 2], the “protectant activity against wheat powdery mildew” value in the test on wheat powdery mildew (400 mg/L) is given as 100%. The “inhibition rate against rice blast” value in the test with rice blast (2.8 mg/L) worked out at 80%; in the test with rice blast (8.3 mg/L), 100%; in the test on rice blast (25 mg/L) it was 100%. Besides, the “protectant activity against cucumber downy mildew” value in the test on cucumber downy mildew (25 mg/L), in the test on cucumber downy mildew (50 mg/L), in the test with cucumber downy mildew (100 mg/L) and in the test with cucumber downy mildew (400 mg/L) was 100% in each case.
As for `FC(F)(F)c1ncnc(NCCc2ccc3c(c2)OCO3)c1Cl` [Compound 20], the “protectant activity against cucumber downy mildew” value in the test on cucumber downy mildew (25 mg/L) was found to be 20%; in the test on cucumber downy mildew (50 mg/L) it was 100%; with cucumber downy mildew (100 mg/L) it was 100%; in the test on cucumber downy mildew (400 mg/L) it was 100%.
Take `Cc1ncnc(NCCc2ccc3c(c2)OCO3)c1Cl` [Compound 1451]: the pest or weed control at 600 µg/mL in test [1] (600 mg/L) was found to be 100%. In addition, the pest or weed control at 25 µg/mL in the test on cucumber downy mildew (25 mg/L) was 0%. Besides, the pest or weed control at 50 µg/mL in the test with cucumber downy mildew (50 mg/L) was 0%. Further, in the test on cucumber downy mildew (100 mg/L), the pest or weed control at 100 µg/mL turned out to be 0%. Moreover, the pest or weed control at 400 µg/mL with cucumber downy mildew (400 mg/L) came to 100%; in the test on corn rust, 80%.
Take `Cc1ncnc(NCCc2ccc3c(c2)OCO3)c1Cl` [Compound 1452]: the “Insecticidal activity against peach aphid (control)” value in test [1] (600 mg/L) stood at 90%. Besides, the pest or weed control at 600 µg/mL in the test with diamond back moth is 80%. Besides, the “protectant activity against cucumber downy mildew” value turned out to be 0% in the test on cucumber downy mildew (25 mg/L), 0% in the test on cucumber downy mildew (50 mg/L), 0% in the test on cucumber downy mildew (100 mg/L) and 95% with cucumber downy mildew (400 mg/L).
On to `CCc1ncnc(NCCc2ccc3c(c2)OCO3)c1Cl` [Compound 1465], for which, in test [1], the pest or weed control at 10 µg/mL came out at 0% and the pest or weed control at 100 µg/mL stood at 70%. Further, in test [1] (600 mg/L), the pest or weed control at 600 µg/mL was determined as 100%. For the same molecule, in the test with diamond back moth, the pest or weed control at 600 µg/mL was 100%. In addition, in the test with corn rust, the pest or weed control at 6.25 µg/mL stood at 0%, the pest or weed control at 25 µg/mL came to 50%, the pest or weed control at 100 µg/mL is 95% and the pest or weed control at 400 µg/mL stood at 100%.

(Values after patent publication US9447081B2, “Substituted pyrimidines as pharmaceuticals and insecticides” (SHENYANG SINOCHEM AGROCHEMICALS R&D CO., LTD., priority 2012, dated 2016).)
